The values that follow come from patent US20180028471A1, “CONTINUOUS LOCAL SLOW-RELEASE OF THERAPEUTICS FOR HEAD AND NECK PROBLEMS AND UPPER AERODIGESTIVE DISORDERS” (Board of Supervisors of Louisiana State University and …, priority 2016, published 2018).

The structures appear in SMILES notation.

For assay [1], the system named is minimal residual disease. As to the kind of experiment: Model of minimal residual disease (tumor formation, survival). The assay is classed as in vivo.
In assay [2] the test system is mTOR pathway markers. As to the kind of experiment: Phase 2 biomarker exploratory trial: mTOR pathway markers in tumors and PBMCs. The conditions noted are these: HNSCC patients. The assay is classed as in vivo. An excerpt: Criteria #1) Biomarker expression in normal tissue should be different from that in high risk tissue. In FIG. 2 we present an analysis of cancer (lanes 5, 6, 11, and 12) and non-cancer (patients with sleep apnea) (lanes1-4 and 7-10) patient samples. The cancer samples include tumors (T) and histologically tumor-free margins (M). […] Criteria #2) Biomarkers can be detected in small tissue specimens. In our studies we have successfully detected by western blots and even by IHC the various Akt/mTOR markers on samples often as small as 5 mm. Criteria #3) Biomarkers can be expressed in a quantity or pattern that can be correlated with the stage of carcinogenesis.

For assay [3], the system named is HNSCC cell lines. As to the kind of experiment: Inhibition of cell proliferation in HNSCC cell lines. Type of assay: cell-based. An excerpt: While curcumin can be used to treat these cancers, other compounds that act on these pathways may also be useful in treating these cancers and it should be readily recognized that such compounds could also be delivered by including in the formulations described herein.

Assay [4] deals with tumor cells. Nature of the assay: Chemoprevention model: pre-treatment before tumor cell injection, tumor volumes. The assay is classed as in vivo, Balb/c nu/nu mice. The note with it: 10 mg, pre-treated 4 days before tumor cell injection, about three weeks. The procedure:
Balb/c nu/nu mice were randomized into treatment groups. […] Tumors were measured over approximately three weeks. […] ANOVA analysis. […] This also points to its role as a chemopreventive agent rather than a therapeutic agent.

In assay [5] the test system is TPA-induced tumor promotion on mouse skin. The conditions noted are these: topical application of 10 μmol twice weekly; cited from earlier work.
In assay [6] the test system is PCI15a cells. As to the kind of experiment: Modulation of NFκB and Akt/mTOR pathways in PCI15a cells. Type of assay: cell-based. The note with it: 10 μM.
The subject of assay [7] is SCC40 cells. Nature of the assay: Modulation of NFκB and Akt/mTOR pathways in SCC40 cells. Type of assay: cell-based. The conditions noted are these: 10 μM.
Assay [8] concerns DMBA-induced oral tumors. The note with it: 10 μmol topically to cheek pouch 3 times/week for 24 weeks; cited from earlier work.
The test system of assay [9] is normal fibroblast cell line CCL110. As to the kind of experiment: Modulation of NFκB and Akt/mTOR pathways in CCL110 normal fibroblasts. Type of assay: cell-based. The conditions noted are these: 10 μM, 24 and 48 hours.
Assay [10] has as its system SCC40 xenografts. Nature of the assay: pAkt and pS6 in SCC40 xenografts of treated mice. The assay is classed as in vivo. The note with it: mice with SCC40 xenografts, FIG. 3B.
In assay [11] the test system is prostate cancer xenograft. The conditions noted are these: p.o. gavage 5 mg/day, 5 days/week for 4 weeks; cited from earlier work.
Assay [12] relates to normal fibroblast cell line CCL110. Nature of the assay: Effects on normal fibroblast cell line CCL110 (proliferation). The assay is classed as cell-based. The note with it: normal fibroblast cell line CCL110, FIG. 1.
Assay [13] deals with SCC066. As to the kind of experiment: Modulation of NFκB and Akt/mTOR pathways in SCC066 cells. The assay is classed as cell-based. The conditions noted are these: 10 μM, 24 and 48 hours.

With `CO[C@H]1C[C@@H]2CC[C@@H](C)[C@@](O)(O2)C(=O)C(=O)N2CCCC[C@H]2C(=O)O[C@H]([C@H](C)C[C@@H]2CC[C@@H](OC(=O)C(C)(CO)CO)[C@H](OC)C2)CC(=O)[C@H](C)/C=C(\C)[C@@H](O)[C@@H](OC)C(=O)[C@H](C)C[C@H](C)/C=C/C=C/C=C/1C` [CCI-779, temsirolimus], in assay [1], the survival entry is “improve survival” and the tumor formation result was “inhibit tumor formation”. Besides, the “mTOR pathway markers in tumors and PBMCs” value in assay [2] was “modulation of these markers”.

On to `CO[C@H]1C[C@@H]2CC[C@@H](C)[C@@](O)(O2)C(=O)C(=O)N2CCCC[C@H]2C(=O)O[C@H]([C@H](C)C[C@@H]2CC[C@@H](OCCO)[C@H](OC)C2)CC(=O)[C@H](C)/C=C(\C)[C@@H](O)[C@@H](OC)C(=O)[C@H](C)C[C@H](C)/C=C/C=C/C=C/1C` [RAD001, everolimus, reference compound], for which, in assay [3], the “sensitivity of a variety of cell lines” value is given as “wide range of sensitivity”.

With `COc1cc(/C=C/C(=O)CC(=O)/C=C/c2ccc(O)c(OC)c2)ccc1O` [curcumin], the “tumor volumes versus control (vehicle treated)” value in [4] is reported as “no significant difference”. Moreover, the “inhibition of the number of tumors per mouse” value in [5] is 98%. Besides, the “growth inhibitory effects on all HNSCC cell lines tested” value in assay [3] (all 10 HNSCC cell lines tested to date) was “growth inhibitory effects”. Further, the “cell proliferation at 10 μM” value in assay [3] (all HNSCC cell lines, 10 μM, FIG. 1) is recorded as “inhibition of cell proliferation”. In [3] (all three HNSCC cell lines, 48 hours), the “growth inhibitory effects at 48 hours” value is “significant growth inhibitory effects”. Besides, the “concentration giving consistent inhibition of cell proliferation” value in assay [3] (variety of HNSCC cell lines, in vitro, FIG. 1) is listed as “less than 10 μM”. Also, in assay [3], the “sensitivity of a variety of cell lines” value is “consistently sensitive”. The pNFκB result is on record as “no change” in assay [6] (24 and 48 hours); “down-regulation” in [7] (after 48 hours). For the same compound, the pAkt entry in assay [6] (48 hours) is reported as “down-regulated”; in [10], “significant decrease”. In assay [6] (48 hours), the “pS6 downstream of mTOR” value is on record as “down-regulated”. Also, the Akt/mTOR pathway result was “no change” in assay [7] (24 and 48 hours); “did not show any modulation” in assay [13]. Moreover, the “reduction of the number of DMBA-induced oral tumors” value in assay [8] is approximately 40%. The “pNFκB or Akt/mTOR” value in [9] is given as “no decrease”. Besides, the pS6 entry in [10] was “significant decrease”. Further, the “inhibition of growth of prostate cancer xenograft” value in assay [11] is reported as approximately 50%. In [12], the “dose required to see effects” value is 20 to 40 µM.
